Data reported in PubChem BioAssay (NCI).
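Interpolation was linear, between the two tested concentrations surrounding the appropriate level; five concentrations were tested over 48 hours in 96-well plates. GI50 = concentration required for 50% inhibition of growth. Definition used: TGI = concentration required for complete inhibition of growth.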

Experiments:
Experiment in all cases: NCI tumour cell line growth inhibition, 48 h
SW-620 colon = tested on: SW-620 colon
HOP-92 NSCLC = tested on: HOP-92 NSCLC
A498 renal = tested on: A498 renal
HL-60(TB) leukemia = tested on: HL-60(TB) leukemia
HOP-62 NSCLC = tested on: HOP-62 NSCLC
PC-3 prostate = tested on: PC-3 prostate
UACC-62 melanoma = tested on: UACC-62 melanoma
A549 NSCLC = tested on: A549 NSCLC
SK-MEL-5 melanoma = tested on: SK-MEL-5 melanoma
RPMI-8226 leukemia = tested on: RPMI-8226 leukemia

## CC[CH2][Sn]([Cl])([Cl])[CH2]CC
SW-620 colon
  GI50: 2.61 µM
  TGI: 11.5 µM
HOP-92 NSCLC
  GI50: 10.6 µM
  TGI: 23.7 µM
A498 renal
  GI50: 1.54 µM
  TGI: 3.62 µM
HL-60(TB) leukemia
  GI50: 2.94 µM
  TGI: > 100 µM
HOP-62 NSCLC
  GI50: 16.6 µM
  TGI: 31.3 µM
PC-3 prostate
  GI50: 16.2 µM
  TGI: 35.9 µM
UACC-62 melanoma
  GI50: 4.19 µM
  TGI: 17.5 µM
A549 NSCLC
  GI50: 18.2 µM
  TGI: 34.3 µM
SK-MEL-5 melanoma
  GI50: 10.6 µM
  TGI: 22.6 µM
RPMI-8226 leukemia
  GI50: 2.03 µM
  TGI: 7.77 µM

## O=C(NNC(=O)c1ccncc1)c1ccncc1
SW-620 colon
  TGI: > 100 µM
HOP-92 NSCLC
  TGI: > 100 µM
A498 renal
  TGI: > 100 µM
HL-60(TB) leukemia
  TGI: > 100 µM
HOP-62 NSCLC
  TGI: > 100 µM
PC-3 prostate
  TGI: > 100 µM
UACC-62 melanoma
  TGI: > 100 µM
A549 NSCLC
  TGI: > 100 µM
SK-MEL-5 melanoma
  TGI: > 100 µM
RPMI-8226 leukemia
  TGI: > 100 µM

## COc1ccc(C2=C(c3cc(OC)c(OC)c(OC)c3)C(=O)CC2)cc1
SW-620 colon
  GI50: 0.082 µM
  TGI: > 100 µM
HOP-92 NSCLC
  GI50: 1.68 µM
  TGI: 54.1 µM
A498 renal
  GI50: 0.0403 µM
  TGI: 0.429 µM
HL-60(TB) leukemia
  GI50: 0.11 µM
  TGI: 1.21 µM
HOP-62 NSCLC
  GI50: 0.355 µM
  TGI: > 100 µM
PC-3 prostate
  GI50: 0.203 µM
  TGI: > 100 µM
UACC-62 melanoma
  GI50: 0.0812 µM
  TGI: > 100 µM
A549 NSCLC
  GI50: 0.193 µM
  TGI: > 100 µM
SK-MEL-5 melanoma
  GI50: 0.123 µM
  TGI: 6.24 µM
RPMI-8226 leukemia
  GI50: 0.255 µM
  TGI: 7 µM

## CC1=C([Se]CC(OC(=O)[C@@H](CO)NC(=O)OC(C)(C)C)C(=O)NC(C)(C)C)C(=O)c2ccccc2C1=O (stereo partly drawn)
SW-620 colon
  GI50: 1.77 µM
  TGI: 3.33 µM
HOP-92 NSCLC
  GI50: 1.88 µM
  TGI: 3.43 µM
A498 renal
  GI50: 3.64 µM
  TGI: 15.2 µM
HL-60(TB) leukemia
  GI50: 0.87 µM
  TGI: 3.81 µM
HOP-62 NSCLC
  GI50: 0.53 µM
  TGI: 1.86 µM
PC-3 prostate
  GI50: 1.35 µM
  TGI: 2.85 µM
UACC-62 melanoma
  GI50: 1.66 µM
  TGI: 3.05 µM
A549 NSCLC
  GI50: 1.81 µM
  TGI: 9.44 µM
SK-MEL-5 melanoma
  GI50: 1.59 µM
  TGI: 2.97 µM
RPMI-8226 leukemia
  GI50: 2.74 µM
  TGI: 8.91 µM

## COc1ccc(/C=C/c2cc(N3CCOCC3)c3cc(F)c(F)cc3n2)cc1OC
SW-620 colon
  GI50: 0.667 µM
  TGI: 11.6 µM
HOP-92 NSCLC
  GI50: 1.36 µM
  TGI: 6.53 µM
A498 renal
  GI50: 1.23 µM
  TGI: 4.63 µM
HL-60(TB) leukemia
  GI50: 0.435 µM
  TGI: 5.14 µM
HOP-62 NSCLC
  GI50: 0.667 µM
  TGI: 7.25 µM
PC-3 prostate
  GI50: 0.846 µM
  TGI: 14.4 µM
UACC-62 melanoma
  GI50: 0.436 µM
  TGI: 2.24 µM
A549 NSCLC
  GI50: 1.67 µM
  TGI: 8.99 µM
SK-MEL-5 melanoma
  GI50: 0.52 µM
  TGI: 2.37 µM
RPMI-8226 leukemia
  GI50: 1.5 µM
  TGI: 9 µM

## O=c1[nH]c(SCc2c(Cl)c(Cl)c(Cl)c(Cl)c2Cl)nc(=S)[nH]1
SW-620 colon
  TGI: > 100 µM
HOP-92 NSCLC
  TGI: > 100 µM
A498 renal
  TGI: > 100 µM
HL-60(TB) leukemia
  TGI: 51.4 µM
HOP-62 NSCLC
  TGI: > 100 µM
PC-3 prostate
  TGI: > 100 µM
UACC-62 melanoma
  TGI: > 100 µM
A549 NSCLC
  TGI: > 100 µM
SK-MEL-5 melanoma
  TGI: > 100 µM
RPMI-8226 leukemia
  TGI: 23.3 µM

## CC(=O)OC[C@]12CC[C@@H]([C@@H](C)C(N)=O)[C@@H]1[C@H]1CC[C@@H]3[C@@]4(C)CC[C@H](OC(C)=O)C(C)(C)[C@@H]4CC[C@@]3(C)[C@]1(C)CC2
SW-620 colon
  GI50: 7.69 µM
  TGI: 24.2 µM
HOP-92 NSCLC
  GI50: 5.21 µM
  TGI: 19.4 µM
A498 renal
  GI50: 12.8 µM
  TGI: 25.6 µM
HL-60(TB) leukemia
  GI50: 2.76 µM
  TGI: 8.4 µM
HOP-62 NSCLC
  GI50: 11 µM
  TGI: 26.6 µM
PC-3 prostate
  GI50: 2.67 µM
  TGI: 11.6 µM
UACC-62 melanoma
  GI50: 5.46 µM
  TGI: 19.5 µM
A549 NSCLC
  GI50: 3.97 µM
  TGI: 47.5 µM
SK-MEL-5 melanoma
  GI50: 3.8 µM
  TGI: 13.1 µM
RPMI-8226 leukemia
  GI50: 2.63 µM
  TGI: 12.4 µM

## O=C(CCCc1ccccn1)c1ccccc1
SW-620 colon
  TGI: > 100 µM
HOP-92 NSCLC
  TGI: > 100 µM
A498 renal
  TGI: > 100 µM
HL-60(TB) leukemia
  TGI: > 100 µM
HOP-62 NSCLC
  TGI: > 100 µM
PC-3 prostate
  TGI: > 100 µM
UACC-62 melanoma
  TGI: > 100 µM
A549 NSCLC
  TGI: > 100 µM
SK-MEL-5 melanoma
  TGI: > 100 µM
RPMI-8226 leukemia
  TGI: > 100 µM

## CCCCN(CCCC)CCCN=c1nc2c(c(N)n1-c1ccccc1)c(=S)n(-c1ccccc1)c(=S)n2-c1ccccc1
SW-620 colon
  GI50: 0.568 µM
  TGI: 2.62 µM
HOP-92 NSCLC
  GI50: 0.229 µM
  TGI: 0.83 µM
A498 renal
  GI50: 1.06 µM
  TGI: 2.39 µM
HL-60(TB) leukemia
  GI50: 0.211 µM
  TGI: > 100 µM
HOP-62 NSCLC
  GI50: 1.45 µM
  TGI: 3.03 µM
PC-3 prostate
  GI50: 0.59 µM
  TGI: 1.94 µM
UACC-62 melanoma
  GI50: 0.714 µM
  TGI: 2.02 µM
A549 NSCLC
  GI50: 1.46 µM
  TGI: 3.48 µM
SK-MEL-5 melanoma
  GI50: 1.02 µM
  TGI: 2.3 µM
RPMI-8226 leukemia
  GI50: 0.159 µM
  TGI: 0.327 µM

## C#CCNC(=O)CC[C@]1(C)[C@H]2CC[C@@H]3[C@@H]([C@@](C)(O)CCC=C(C)C)CC[C@@]3(C)[C@]2(C)CC[C@H]1C(=C)C
SW-620 colon
  GI50: 29.4 µM
  TGI: > 100 µM
HOP-92 NSCLC
  GI50: 14.8 µM
  TGI: 34.2 µM
A498 renal
  GI50: > 100 µM
  TGI: > 100 µM
HL-60(TB) leukemia
  GI50: 1.19 µM
  TGI: 15.9 µM
HOP-62 NSCLC
  GI50: 35 µM
  TGI: > 100 µM
PC-3 prostate
  GI50: 17.4 µM
  TGI: 70 µM
UACC-62 melanoma
  GI50: 22.5 µM
  TGI: > 100 µM
A549 NSCLC
  GI50: 42.7 µM
  TGI: > 100 µM
SK-MEL-5 melanoma
  GI50: 38.8 µM
  TGI: > 100 µM
RPMI-8226 leukemia
  GI50: 20.1 µM
  TGI: 62.9 µM

## OC(COc1cccc2ccccc12)CN1CCN(c2ccccc2)CC1 (stereo not drawn)
SW-620 colon
  GI50: 15.2 µM
  TGI: 30.1 µM
HOP-92 NSCLC
  GI50: 4.86 µM
  TGI: 19 µM
A498 renal
  GI50: 13.5 µM
  TGI: 26.4 µM
HL-60(TB) leukemia
  GI50: 21.1 µM
  TGI: 52.4 µM
HOP-62 NSCLC
  GI50: 13.4 µM
  TGI: 26.8 µM
PC-3 prostate
  GI50: 12.5 µM
  TGI: 29 µM
UACC-62 melanoma
  GI50: 14.1 µM
  TGI: 28.5 µM
A549 NSCLC
  GI50: 19.3 µM
  TGI: 36.6 µM
SK-MEL-5 melanoma
  GI50: 15.9 µM
  TGI: 29.9 µM
RPMI-8226 leukemia
  GI50: 17 µM
  TGI: 42.9 µM

## CCOC(=O)C(=O)N=Nc1nc2c(O)c3ccccc3c(O)c2s1
SW-620 colon
  TGI: 5.7 µM
HOP-92 NSCLC
  TGI: 23.1 µM
A498 renal
  TGI: 38.2 µM
HL-60(TB) leukemia
  TGI: > 100 µM
HOP-62 NSCLC
  TGI: 24.7 µM
PC-3 prostate
  TGI: 27.1 µM
UACC-62 melanoma
  TGI: 11.5 µM
A549 NSCLC
  TGI: 17.6 µM
SK-MEL-5 melanoma
  TGI: 3.62 µM
RPMI-8226 leukemia
  TGI: > 19.9 µM

## COc1ccc(/C=C\c2cc(OC)c(OC)c(OC)c2)cc1OC(=O)c1cccc(Cn2cc(CCOC(=O)c3cccc(Cn4nnc5c4C(=O)c4ccccc4C5=O)c3)nn2)c1
SW-620 colon
  GI50: < 0.01 µM
  TGI: > 100 µM
HOP-92 NSCLC
  GI50: 0.464 µM
  TGI: 33.7 µM
A498 renal
  GI50: < 0.01 µM
HL-60(TB) leukemia
  GI50: < 0.01 µM
  TGI: 0.0125 µM
HOP-62 NSCLC
  GI50: 0.0381 µM
  TGI: 27 µM
PC-3 prostate
  GI50: < 0.01 µM
  TGI: > 100 µM
UACC-62 melanoma
  TGI: 24.8 µM
A549 NSCLC
  GI50: 0.0392 µM
  TGI: > 37.9 µM
SK-MEL-5 melanoma
  GI50: < 0.01 µM
  TGI: 0.0474 µM
RPMI-8226 leukemia
  GI50: < 0.01 µM
  TGI: > 100 µM

## COc1ccc(-c2nn(-c3cccc(NC(=O)Nc4cc(C(F)(F)F)cc(C(F)(F)F)c4)c3)cc2-c2ccncc2)cc1Cl
SW-620 colon
  GI50: 1.35 µM
  TGI: 6.5 µM
HOP-92 NSCLC
  GI50: 0.17 µM
  TGI: 1.33 µM
A498 renal
  GI50: 0.507 µM
  TGI: 3.17 µM
HL-60(TB) leukemia
  GI50: 1.24 µM
  TGI: 3.63 µM
HOP-62 NSCLC
  GI50: 1.09 µM
  TGI: 3.29 µM
PC-3 prostate
  GI50: 0.448 µM
  TGI: 2.92 µM
UACC-62 melanoma
  GI50: 0.948 µM
  TGI: 3.11 µM
A549 NSCLC
  GI50: 1.07 µM
  TGI: 7.6 µM
SK-MEL-5 melanoma
  GI50: 0.827 µM
  TGI: 1.7 µM
RPMI-8226 leukemia
  GI50: 0.54 µM
  TGI: 2.68 µM
